According to patent publication US8835171B2, “Materials and methods related to sodium/potassium adenosine triphosphase and cholesterol” (The University of Toledo, priority 2010, dated 2014):

Assays:
[1] = molecular target: T1, purified pig kidney Na/K-ATPase (PKE) (Sus scrofa, UniProt P05024); test: NBD-cholesterol binding assay with purified pig kidney enzyme (PKE)
T1 construct: Purified Na/K-ATPase membrane samples (PKE) were prepared from pig kidney medulla; from tissue; host or cells: pig kidney outer medulla
Source text: As the purified membrane fragments contained large amount of cholesterol, which may already saturated binding sites on the Na/K-ATPase, most of the cholesterol content was extracted by Mβ-CD (FIG. 5B). To study the binding between the Na/K-ATPase and cholesterol, a cholesterol analogue, 25-[N-[(7-nitro-2-1,3-benzoxadiazol-4-yl)methyl]amino]-27-norcholesterol (NBD cholesterol), was used for the binding assay. NBD-cholesterol was used for the study of protein-cholesterol interaction before. Unlike cholesterol, NBD-cholesterol is able to emit fluorescence signals that peak at ˜530 nm when excited at 473 nm because of the replacement of the methyl group at C25 position with an NBD group (FIG. 5C). In the aqueous solution, its fluorescence is largely quenched. However, when it binds to a protein and is exposed to a hydrophobic environment, the fluorescence signals will increase. Moreover, it has much higher critical micelle concentration (˜650 nM) than that of the cholesterol (30 nM) so that higher concentrations of the NBD-cholesterol can be used during the binding assay. […] The Kd value is 100 nM-200 nM.
To further confirm that the results represented lipid-protein interaction instead of lipid-lipid interaction, the inventors measured fluorescence resonance energy transfer (FRET) signals. […]

[2] = system: Na/K-ATPase α1; test: Western blot of Na/K-ATPase α1 level in LLC-PK1 cells; format: cell-based, pig
Procedure: LLC-PK1 cells were grown in 6 cm culture dish to 100% confluence and serum starved for 24 hours. Cells were then treated by 10 mM Mβ-CD for 1 hour. […] Cell lysates were subject to protein assay and Western blot analysis. Protein concentrations of cell lysates or tissue homogenates were measured by Protein Assay Kit from Bio-Rad (Hercules, Calif.). Equal amounts of protein were loaded onto the gel and separated on 10% SDS-PAGE, transferred to an Optitran membrane, and probed with corresponding antibodies. Protein signals were detected with an ECL kit. The density of the Western bands was quantified by the free software Image J.

[3] = system: LLC-PK1 cells; test: Cholesterol assay of LLC-PK1 cell lysates; format: cell-based, pig; settings: U18666A-treated cells
Procedure: LLC-PK1 cells were grown in 6 cm culture dish to 100% confluence and serum starved for 24 hours. […] […] Cell lysates were subject to protein assay and Western blot analysis. Cholesterol assay and filipin staining were performed as described in Chen et al., Regulation of intracellular cholesterol distribution by Na/K-ATPase. Journal Biological Chemistry, Volume 284, pages 14881-14890 (2009).

[4] = system: insulin receptor β subunit; test: Western blot of insulin receptor in LLC-PK1 cells; format: cell-based, pig
Procedure: (§1) Protein concentrations of cell lysates or tissue homogenates were measured by Protein Assay Kit from Bio-Rad (Hercules, Calif.). Equal amounts of protein were loaded onto the gel and separated on 10% SDS-PAGE, transferred to an Optitran membrane, and probed with corresponding antibodies. Protein signals were detected with an ECL kit. The density of the Western bands was quantified by the free software Image J.

[5] = system: caveolin-1; test: Western blot of caveolin-1 in LLC-PK1 cells; format: cell-based, pig; settings: U18666A 48 h
Procedure: as §1

[6] = system: cell surface Na/K-ATPase; test: 3H-ouabain binding assay of cell surface Na/K-ATPase; format: cell-based, pig; settings: LLC-PK1 cells, U18666A
Procedure: [3H]Ouabain Binding was conducted as described in Tian et al., Changes in sodium pump expression dictate the effects of ouabain on cell growth, Journal of Biological Chemistry, 14921-1429 (2009).

[7] = system: Na/K-ATPase α1 mRNA; test: Quantitative RT-PCR of α1 mRNA; format: cell-based, pig; settings: LLC-PK1 cells, 10 μg/ml U18666A 24 h
Procedure: The quantitative RT-PCR on mRNA levels of Na/K-ATPase α1 and GAPDH were performed as described in Tian et al., Changes in sodium pump expression dictate the effects of ouabain on cell growth, Journal of Biological Chemistry, 14921-1429 (2009).

[8] = system: Na/K-ATPase α1; test: Immunostaining / confocal imaging of Na/K-ATPase α1 distribution in LLC-PK1 cells; format: cell-based, pig
[9] = system: LLC-PK1 cells; test: Filipin staining of cholesterol distribution in LLC-PK1 cells; format: cell-based, pig; settings: U18666A 24 h
Procedure: Cholesterol assay and filipin staining were performed as described in Chen et al., Regulation of intracellular cholesterol distribution by Na/K-ATPase. Journal Biological Chemistry, Volume 284, pages 14881-14890 (2009).

[10] = system: wild-type rat α1; test: α1 and filipin staining in wild-type rat α1-rescued cells (AAC-19); format: cell-based; settings: AAC-19 cells, different doses of U18666A 24 h
Procedure: Thus, it was of interest to explore whether the CRAC plays a role in cholesterol depletion-induced α1 endocytosis. Firstly, the inventors treated wild-type rat α1 rescued-cells, AAC-19, with U18666A and stained both α1 and cholesterol. […] Staining of the Na/K-ATPase α1 was performed as previously described. Briefly, cells were serum-starved for 24 hours and treated on coverslips. The cells were then fixed with ice-cold methanol for 30 min and blocked with Signal Enhancer from Invitrogen. Next, cells were incubated with a monoclonal anti-Na/K-ATPase α1 antibody at 4° C. overnight. After three washes with PBS, a secondary Alex 488-conjugated anti-mouse antibody was added and incubated at room temperature for 3 hours. The coverslip was washed, mounted and imaged with a Leica confocal microscope.

[11] = system: Y55S mutant rat α1; test: α1 and filipin staining in Y55S mutant rat α1-rescued cells (PY-17-Y55S); format: cell-based; settings: PY-17-Y55S cells, different doses of U18666A 24 h
Source text: Next, the inventors mutated the essential Tyr55 in the rat α1 CRAC (corresponds to the Tyr53 in pig α1) to Ser55 by a site-directed mutagenesis method and generated the stable mutant rat α1-rescued cell line (PY-17-Y55S). Once the cell line was established, the inventors did the same experiment as on AAC-19 cells. […] To confirm the findings, the inventors had the CRAC synthesized with a positively charged leader peptide, HIV-TAT, tagged to the N-terminus of CRAC so that the TAT-CRAC peptide was cell permeable. Theoretically, loading of the TAT-CRAC peptide into the cells may interrupt the binding between endogenous α1 and cholesterol by competitive inhibition. […] Taken together, the cholesterol-regulated Na/K-ATPase α1 membrane trafficking is dependent on the cholesterol-α1 interaction.
The rat α1 CRAC mutant (Tyr55 to Ser55) was created by PCR-based site-directed mutagenesis on the pRc/CMV-a1AACm1 plasmid as generated previously. The Y55S mutant rat α1 knock-in cell line was then established using the same protocol described before. The pEYFP-α1 plasmid was generated as described previously. RFP-rab7 plasmid was requested from www.addgene.org. The preparation of plasmid constructs expressing GST fusion proteins were made from pGEX-4T-1 as previously described. GST-NT (Ala1-Ser160) and GST-NT-Y55S expression vectors were constructed based on sequence of pig kidney Na/K-ATPase α1 subunit. […]

[12] = system: LLC-PK1 cells; settings: 10 mM Mβ-CD 30-60 minutes at 37°, previous work from the inventors' lab; cited from earlier work

With `CC(CCC[C@@H](C)[C@@H]1CC[C@H]2[C@@H]3CC=C4C[C@@H](O)CC[C@]4(C)[C@H]3CC[C@@]21C)N(C)c1ccc([N+](=O)[O-])c2nonc12` (stereo partly shown) [NBD-cholesterol, 25-[N-[(7-nitro-2-1,3-benzoxadiazol-4-yl)methyl]amino]-27-norcholesterol] the “FRET signals at 530 nm on incubation with PKE” value ([1]; Trp excited at 295 nm) was “dose-dependent saturation curve”.
For `CCN(CC)CCO[C@H]1CC[C@@]2(C)C(=CC[C@@H]3[C@@H]2CC[C@]2(C)C(=O)CC[C@@H]32)C1` [U18666A], the “downregulation of α1 expression” value ([2]; U18666A 24 h and 48 h) was “both dose and time-dependent”, the total cellular cholesterol [3] was “no significant difference” and the insulin receptor content ([4]; LLC-PK1 cells after U18666A treatment) was “remained undisturbed”. For the same compound, the caveolin-1 protein level [5] was “downregulated”, the “cell surface α1 by 3H-ouabain binding” value [6] was “downregulation of cell surface α1” and the “α1 mRNA level” value [7] was “no difference compared to control”. The “intracellular α1 accumulation, colocalization with RFP-Rab7” value ([8]; LLC-PK1 cells transfected with RFP-rab7, 5 μg/ml U18666A 24 h) was “massive intracellular α1 accumulation, most of which clearly colocalized with the Rab7 signals”, the “colocalization of internalized YFP-α1 with free cholesterol” value ([8]; LLC-PK1 cells transfected with YFP-α1, 5 μg/ml U18666A 24 h) was “most of the internalized α1 colocalized with free cholesterol” and the “α1 signals, cellular distribution” value ([8]; LLC-PK1 cells, U18666A 24 h) was “reduced in the plasma membrane but increased in the intracellular compartments”. The “distribution of free cholesterol” value [9] was “redistribution of free cholesterol from the plasma membrane to intracellular compartments”, the “endocytosis of α1” value [10] was “endocytosis of α1 in a dose-dependent manner” and the “endocytosis of α1” value [11] was “no obvious endocytosis”.
For `CC(C)CCC[C@@H](C)[C@H]1CC[C@H]2[C@@H]3CC=C4C[C@@H](O)CC[C@]4(C)[C@H]3CC[C@]12C` [cholesterol], the “competition of binding between NBD-cholesterol and purified PKE” value ([1]; 100 nM PKE, 30 nM NBD-cholesterol, FRET) was “competed the binding”.
With `C[C@@H]1C[C@@H]([C@H](O)CC2CC(=O)NC(=O)C2)C(=O)[C@@H](C)C1` [cycloheximide] the “effect on U18666A-induced α1 redistribution to the intracellular compartments” value ([8]; cycloheximide 10 μg/ml 1 h before U18666A 24 h) was “did not prevent”.
With methyl β-cyclodextrin [Mβ-CD] the “decrease in α1 level” value ([2]; 10 mM Mβ-CD 1 h, 0 h recovery) was about 40%, the “expression of insulin receptor” value ([4]; during cholesterol depletion by Mβ-CD and repletion) was “unchanged” and the α1 immunostaining signals ([8]; Mβ-CD treated LLC-PK1 cells) was “lower α1 signals from the plasma membrane”. For the same compound, the “plasma membrane cholesterol pool” value [12] was “significantly lowered”.
